The record followed here is patent US10736965B2, “Risperidone biodegradable implant” (The Trustees of the University of Pennsylvania, priority 2004, dated 2020).

Structures are written as SMILES. ≈ marks a conversion by molar mass, not a printed value. Where two headings read alike, the source gives them in different places.

In general, solubility refers to the dissolved amount per volume that the medium holds. A lower solubility goes with little dissolved substance. What is called half-life is the time in which the quantity being followed falls by half. Read a low half-life as rapid decline.

A short description of series [1]: Drug solubility in water. It counts as physicochemical. The conditions noted are these: measured after 14 days, distilled water, 21° C.; for solubility at 14 days: thermodynamic from solid. An excerpt:
1-mL aliquots were removed at fixed time intervals and analyzed by UV Spectroscopy to determine maximum saturation concentration.

A short description of series [2]: In vitro drug release assay from 50:50 PLGA pellets, fit to equation (4). In kind it is physicochemical. The note with it: for k (degradation reaction rate): fit of FIG. 10 data to equation (4), 50:50 PLGA, 20% drug load; for Onset of drug release (induction time): 50:50 PLGA pellets, PBS 37° C.; for k, fit parameter: FIG. 11 legend. As for the experimental part: 400 mg of 50:50 PLGA and 100 mg of drug were solvent cast to obtain a 20% by mass drug-load. Polymer and drug were dissolved in 45 milliliters (mL) acetone (Fisher Scientific, Inc.) and vortexed, then poured into an evaporation dish and placed in a vacuum oven at 40° C. under vacuum (3 inches Hg) with trace airflow. After seven days, dishes were removed from the oven. Evaporation residue was a thin film mixture of polymer and drug with homogenous appearance. The film was carefully weighed to confirm complete removal of solvent and pressed into four uniform disk-shaped pellets with 1 mm thickness and […], using a Teflon®-coated pellet press set at 25 (kilo-pounds) klb and 60° C. Pellets were carefully weighed and measured to determine densities. Negative control pellets with a 0% drug load were fabricated in the same manner, using 500 mg polymer and no drug.
Assays were performed in triplicate using three of each set of four uniform pellets. Each pellet was added to an amber-glass, capped jar (Wheaton, Inc.) containing 500 mL of a PBS solution and subjected to moderate shaking in the dark, at 37° C. 1-mL aliquots of were analyzed by UV Spectroscopy at fixed time intervals and. Positive control jars contained PBS and 10 mg of drug, the expected maximum release for a 20% drug-loaded pellet with a mass of 50 mg, and were also used to determine stability of each drug in saline solution over the course of the experiment.
The degradation reaction is likely to be a […] reaction between the polymer and water, and is thus proportional to the local concentration of both species. However, since the polymer comprises the majority of the pellet, its concentration is fixed everywhere. Thus, the degradation reaction is proportional to the local concentration of water (a function of the diffusivity) times a constant. Defining the diffusion coefficient of water into the polymer pellet as D, the diffusion/reaction equation for water is written as (1): […]
The model described by Equation (4) fit well the drug release data shown in FIG. 10 for all six drugs tested, with values of D and k as listed in Table 2 (the curves for haloperidol and aspirin are depicted in FIG. 11). This is notable because the drugs tested are diverse; e.g. haloperidol and aspirin are very different. The deviations seen at late time points arose from the finite size of the pellets.

Series [3] is described as follows: in vivo. The conditions noted are these: rabbit. An excerpt:
The concentration of drug as a function of time is a complex function. The error function can be approximated as erf(x)˜1−e^−7x/4, yielding equation 10 for the drug concentration. a1 is a constant equal to the total drug content of the implant, variable a2 is a constant equal to the metabolic rate, variable a3 reflects diffusion of drug from the implant and variable a4 reflects polymer degradation and influences total release interval.

Series [4] is classed as physicochemical. As for the experimental part: To evaluate the long-term stability of risperidone in physiological solution, 10 mg Risperidone was dissolved in 100 μl of acetonitrile for subsequent dissolution in 1,000 ml of PBS (0.9% NaCl, 0.01 M NaOH, 0.01 M NaH2PO4, pH 7.0) to yield a final solution of 10,000 nanograms (ng)/ml. The solution was shaken at 40 revolutions per minute in a light-safe amber bottle at 37° C. Drug concentration of a 1-ml sample was measured three times per week by UV spectroscopy (Amersham Biosciences, Buckinghamshire, UK). […] Studies were replicated using UV spectrophotometry and HPLC (FIG. 5).

The conditions of series [5]: first 77 days.

`CC(=O)Oc1ccccc1C(=O)O` [Aspirin, 2-acetyloxybenzoic acid] yielded a Water solubility in series [1] of 4.99 mg/mL. Moreover, the “k (degradation reaction rate)” value in series [2] came out at 0.06 day⁻¹.
In series [1], `CC12CCC(=O)C=C1CCC1C2C(O)CC2(C)C(C(=O)CO)CCC12` (stereo not drawn) [Corticosterone, 11-hydroxy-17-(2-hydroxyacetyl)-10,13-dimethyl-1,2,6,7,8,9,10,11,12,13,14,15,16,17-tetradecahydrocyclopenta[a]phenanthren-3-one] registered a solubility at 14 days of 0.5 mg/mL (≈ 1440 µM). Moreover, the “k (degradation reaction rate)” value in series [2] amounted to 0.33 day⁻¹.
Turning to `NS(=O)(=O)c1cc2c(cc1Cl)NCNS2(=O)=O` [HCTZ, 9-chloro-5,5-dioxo-5λ6-thia-2,4-diazabicyclo[4.4.0]deca-6,8,10-triene-8-sulfonamide], the “k (degradation reaction rate)” value in series [2] is 0.26 day⁻¹.
In series [1], `O=C(CCCN1CCC(O)(c2ccc(Cl)cc2)CC1)c1ccc(F)cc1` [Haloperidol, 4-[4-(4-chlorophenyl)-4-hydroxy-1-piperidyl]-1-(4-fluorophenyl)-butan-1-one] registered a solubility at 14 days of 0.13 mg/mL (≈ 346 µM). In series [2], the “Onset of drug release (induction time)” value is listed as “exhibited an induction time”; the “k, fit parameter” value was “approximately 0.1 1/days”; the “k (degradation reaction rate)” value was determined as 0.07 day⁻¹. In series [3], the “Coefficient τ” value is “≈ 0.027” and the half-life is about 2.17 h.
In series [1], `CC(C)Cc1ccc(C(C)C(=O)O)cc1` (stereo not drawn) [Ibuprofen, 2-[4-(2-methylpropyl)phenyl]propanoic acid] gave a solubility at 14 days of 0.47 mg/mL (≈ 2280 µM). Besides, in series [2], the “k, fit parameter” value is given as “approximately 0.164 1/days” and the “k (degradation reaction rate)” value stood at 0.16 day⁻¹.
Consider `Cc1nc2n(c(=O)c1CCN1CCC(c3noc4cc(F)ccc34)CC1)CCCC2` [Risperidone], for which the “Stability in physiological solution” value in series [4] is “stable”. The “Change in concentration of drug per day” value in series [4] (PBS pH 7.0, 37° C.) was found to be 0.004 % per day. For the same molecule, in series [4] (over 343 days, PBS pH 7.0, 37° C., UV spectroscopy), the “Change in concentration of drug” value is 1.4%. Besides, the “Daily change in drug mass” value is reported as 0.00% in series [5] (pH 4.4), 0.10% in series [5] (pH 5.4), 0.04% in series [5] (pH 6.4) and 0.06% in series [5] (pH 7.4).
On to `CN1CCN(CCC=C2c3ccccc3Sc3ccc(S(=O)(=O)N(C)C)cc32)CC1` [Thiothixene, N,N-dimethyl-9-[3-(4-methylpiperazin-1-yl)propylidene]thioxanthene-2-sulfonamid], for which the concentration in solution in series [1] (solubility at 14 days) was 0.14 mg/mL (≈ 316 µM). In series [2], the “Onset of drug release (induction time)” value was “released as soon as the experiment begins” and the “k (degradation reaction rate)” value worked out at 0.06 day⁻¹.
